According to patent US20240156757A1, “CXCL8 INHIBITOR AND PHARMACEUTICAL COMPOSITION THEREOF FOR USE IN THE TREATMENT OF SEIZURES” (DOMPE' FARMACEUTICI SPA, priority 2021, published 2024):

Tests used:
[1] = test system: chronic epileptic mice with established spontaneous seizures; assay: Effect of reparixin on established seizures in chronic epileptic mice; format: in vivo
Method: The objective of this experiment was to assess whether reparixin affects seizure frequency or duration in chronic epileptic mice with established spontaneous seizures. Status epilepticus was induced in 18 mice prepared as described in Example 1a) by amygdala injection of kainic acid and EEG was recorded for 14 days to determine disease onset as described in Example 2. Then, mice were disconnected from EEG and returned to their home cages until day 45 at which time they were again EEG recorded for 14 days to determine their individual baseline of spontaneous seizures. At the end of this period, mice were temporarly disconnected for minipumps implantation. Minipumps (ALZET model 2002; 0.5 μl/h) were filled with Reparixin (7.5/mg/h/kg, n=9) or its vehicle (n=9) according to the manifacturer's instructions and implanted subcutaneously in the back of the mice under general gas anaesthesia (1-3% isoflurane in O2). Upon awakening from anesthesia, mice were returned to their home cages for monitoring the EEG for additional 14 days during treatment. At the end of treatment period (as determined by minipump exhaustion) venous blood was collected from the cheek and plasma was isolated for drug level measurement. Mice were subsequently monitored during a drug wash-out period of 14 days. A group of sham mice (not exposed to SE but handled as experimental mice) were implanted with minipumps filled with vehicle (n=6).

[2] = test system: murine model of acquired epilepsy triggered by de novo status epilepticus; assay: Effect of reparixin on onset and development of epilepsy (intra-amygdala kainic acid status epilepticus, EEG recording); format: in vivo, C57BL6/N male mice
Method: A murine model of acquired epilepsy triggered by de novo status epilepticus was used in the experiments (lori et al, Neurobiol Dis 2017, 99 12-23).
In details, eight week-old C57BL6/N male mice (˜25 g; Charles River, calco, Italy) were used. Mice were maintained in SPF facilities and housed at a constant room temperature (23° c) and relative humidity (60±5%) with free access to food and water and a fixed 12 h light/dark cycle. All experimental procedures were conducted in conformity with institutional guidelines that are in compliance with national (D.L. n.26, G.U. Mar. 4, 2014) and international laws and policies (EEC council directive 86/609, OJ L 358, 1, Dec. 12, 1987, guide for the care and use of laboratory animals, U.S. national research council, 1996), and were reviewed and approved by the intramural ethical committee.
Mice were surgically implanted under general gas anaesthesia (1-3% isoflurane in O2) and stereotaxic guidance. A 23-gauge guide cannula was unilaterally positioned on top of the dura mater for the intra-amygdala injection of kainic acid (KA) (from bregma, mm: nose bar 0; anteroposterior, −0.9; lateral, −3.1) in accordance with lori et al. (2017).
For seizure recording, a nichrome-insulated bipolar depth electrode (60 μm OD) was implanted in the dorsal hippocampus (from bregma, mm: nose bar 0; anteroposterior—1.8, lateral 1.4 and 1.8 below dura mater) contralateral to the injected amygdala and a cortical electrode was placed onto the somatosensory cortex in the ipsilateral hemisphere. Finally, two screw electrodes were positioned over the nasal sinus and the cerebellum, and used as ground and reference electrodes, respectively. Electrodes were connected to a multipin socket and secured to the skull by acrylic dental cement.
Minipumps (Alzet pump 1007D, 100 μ/minipump or Alzet pump 2002, 200 μ/minipump; Charles River, Calco, Italy) filled with reparixin dissolved in a vehicle consisting in sterile saline (NaCl 0.9%) solution (vehicle) (reparixin group) or vehicle (sham control group and vehicle group) were implanted subcutaneously in the back of the mice. Briefly, a small incision was made in the skin between the scapulae and a pocket was formed by spreading apart the connective tissues. After minipump positioning, the skin was carefully sutured to avoid any discomfort to the animal.
One week after surgery, mice were connected to the EEG set up (TWIN EEG recording system connected with a comet AS-40 32/8 amplifier:sampling rate 400 hz, high-pass filter 0.3 hz, low-pass filter 70 hz, sensitivity 2000 my/cm; Grass-telefactor, West Warwick, USA) in order to record an EEG baseline before the induction of status epilepticus (SE). […]
Reparixin, at the dose of 7.5 mg/h/kg (reparixin group), or vehicle (sham and vehicle group) were administered by continuous infusion using osmotic minipumps as described in example 1b).
After 24 hours from infusion, status epilepticus was induced in the vehicle group and reparixin group by amygdal injection of kaininc acid.
In details, kainic acid (KA, 0.3 μg in 0.2 μl; Sigma-Aldrich, S. Louis, USA) was dissolved in […] phosphate-buffered saline (PBS, pH 7.4) and injected into the right basolateral amygdala in freely moving mice using a needle protruding 4.1 mm below the implanted cannula in order to evoke SE. SE was defined by the appearance of continuous spike activity with a frequency>1 Hz intermixed with high amplitude and frequency discharges lasting for at least 5 s, with a frequency of >8 Hz. […]

[3] = test system: Fluoro-Jade-positive degenerating neurons; assay: Fluoro-Jade staining of degenerating neurons in hippocampus after SE; format: in vivo, C57BL6/N male mice; conditions: 72 h post-SE
Method: (§1) A cohort of animals was prepared in accordance to Example 1 to study the effects of reparixin on the acetylated alpha-tubulin, a pharmacodynamic marker of drug's neuroprotective effect, and on degenerating neurons, as identified by Fluoro-Jade staining.
(§2) vehicle group (n=6) and reparixin group (n=7). Sham mice (implanted with electrodes but not exposed to SE) were used as controls (n=6).
(§3) The animals of the different groups were treated as described in Example 2.
All mice were transcardially perfused 72 h post-SE with ice-cold phosphate buffered saline (PBS, pH 7.4), followed by 4% paraformaldehyde (PFA) in PBS. Brains were post-fixed for 90 min in 4% PFA in PBS at 4° C., then transferred to 20% sucrose in PBS overnight at 4° C. and then frozen in n-pentane for 3 min at −43° C. and stored at −80° C. until assay. Serial coronal sections (40 μm) were cut on a cryostat throughout the extension of the hippocampus (from bregma −1.22 to −2.54 mm).
(§4) Sections were processed to measure both degenerating neurons with Fluoro-Jade and acetylated alpha-tubulin (marker of microtubule stability) as described below. Three slices for each animal's brain in each experimental group/marker were matched for anteroposterior level and processed.
Labeling was carried out as previously described (Ravizza et al., 2008). Briefly, sections were dried in ethanol (100%, 75% and 50%) and rehydrated in distilled water. […]

[4] = test system: acetylated alpha-tubulin; assay: Acetylated alpha-tubulin immunostaining in hippocampus after SE; format: in vivo, C57BL6/N male mice; conditions: as assessed 48 h and 72 h after SE; 7.5 mg/h/kg minipump; reparixin n=7, vehicle n=4
Method: as §1, §2, §3
[…] Brains were post-fixed for 90 min in 4% PFA in PBS at 4° C., then transferred to 20% sucrose in PBS overnight at 4° C. and then frozen in n-pentane for 3 min at −43° C. and stored at −80° C. until assay. Serial coronal sections (40 μm) were cut on a cryostat throughout the extension of the hippocampus (from bregma −1.22 to −2.54 mm).
as §4
Slices were blocked for 30 min at 4° C. in blocking buffer (0.1% Triton-X100, 3% BSA in PBS; Invitrogen) then incubated with primary antibody against acetylated alpha-tubuline 1:2000 (#24610 Abcam) overnight at 4 C. […]

CC(C)Cc1ccc([C@@H](C)C(=O)NS(C)(=O)=O)cc1 [reparixin, R-(-)-2-(4-isobutylphenyl)propionyl methansulfonamide]
average SRS duration ([1]; 7.5 mg/h/kg s.c. minipump for 14 days, n=9): not modified
reduction of the number of spontaneous seizures compared to pre-injection baseline ([1]; 7.5 mg/h/kg s.c. minipump for 14 days, n=9, p<0.05 one-way ANOVA, Tukey's test): about 50%
responders (at least 30% seizure reduction during treatment vs pre-treatment baseline) ([1]; 7.5 mg/h/kg s.c. minipump for 14 days, waterfall plot): 7 out of 9
number of seizures upon drug discontinuation ([1]; drug wash-out period of 14 days): returned to pre-injection baseline level
onset time of SE ([2]; 7.5 mg/h/kg continuous s.c. minipump infusion started 24 h before kainic acid, vs vehicle group, n=24/group): did not modify
onset of spontaneous seizures (epilepsy onset, Kaplan-Meyer curve) ([2]; 7.5 mg/h/kg minipump for 7 days post-SE, p<0.05 Log-rank test vs vehicle): significant delay
incidence of acute symptomatic seizures during 48 h post-SE ([2]; 7.5 mg/h/kg minipump, all animals exposed to SE, p<0.05 by Fisher's test vs vehicle (62% of mice)): 20 % of mice
number of spontaneous recurrent seizures (SRS) during drug treatment ([2]; 48 h-7 d post-SE, vs vehicle group, p<0.05 Mann-Whitney test): significant reduction
mice that died during epilepsy development ([2]; reparixin group n=9, vehicle group 3 out of 12 died because of severe seizures): 1 out of 9
mice without Fluoro-Jade positive neurons in CA4 ([3]; vehicle 1 out of 5 without neurodegeneration, p=0.29 by Fisher test): 4 out of 7
mice without Fluoro-Jade positive neurons in CA1 pyramidal cell layer ([3]; vehicle 5 out of 5 showed neurodegeneration, p<0.05 by Fisher test): 5 out of 7
immunohistochemical signal of acetylated alpha-tubulin in the mouse hippocampus [4]: significantly reduced
